ChEMBL document CHEMBL3352333, “Structural evidence of N6-isopentenyladenosine as a new ligand of farnesyl pyrophosphate synthase” (J Med Chem, 2014)
Active and inactive are the calls of the source. No cut-off for these calls is given here.

Key:
[1] = molecular target: T1, Farnesyl pyrophosphate synthase (Homo sapiens, UniProt P14324); test: Binding affinity to FPPS (unknown origin) expressed in Escherichia coli BL21(DEscherichia ) assessed as binding constant of proton H14-H15 of isopentenylic moiety by saturation transfer difference NMR analysis
T1 sequence (P14324 whole entry): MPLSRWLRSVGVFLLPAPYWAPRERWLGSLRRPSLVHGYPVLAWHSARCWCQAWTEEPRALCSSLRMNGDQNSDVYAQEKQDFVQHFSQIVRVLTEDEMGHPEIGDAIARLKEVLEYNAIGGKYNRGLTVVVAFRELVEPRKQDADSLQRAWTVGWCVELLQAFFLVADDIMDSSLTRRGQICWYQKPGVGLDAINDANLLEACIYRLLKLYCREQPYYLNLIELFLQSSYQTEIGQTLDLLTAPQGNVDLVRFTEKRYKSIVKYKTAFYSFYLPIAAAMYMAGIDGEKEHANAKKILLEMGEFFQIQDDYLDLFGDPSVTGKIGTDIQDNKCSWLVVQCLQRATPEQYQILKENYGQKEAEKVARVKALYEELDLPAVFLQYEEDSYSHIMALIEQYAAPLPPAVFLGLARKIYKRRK

[2] = molecular target: T2, Farnesyl pyrophosphate synthase (Homo sapiens) (UniProt P14324); test: Binding affinity to FPPS (unknown origin) expressed in Escherichia coli BL21(DEscherichia ) at protein/ligand 1:10 to 1:100 molar ratio by WaterLOGSY 1D 1H NMR analysis
T2 sequence (whole entry): T1 sequence (P14324 whole entry)

[3] = molecular target: T2, Farnesyl pyrophosphate synthase (Homo sapiens); test: Binding affinity to FPPS (unknown origin) expressed in Escherichia coli BL21(DEscherichia ) at protein/ligand 1:10 to 1:100 molar ratio by saturation transfer difference NMR analysis
[4] = molecular target: T1, Farnesyl pyrophosphate synthase; test: Binding affinity to FPPS (unknown origin) expressed in Escherichia coli BL21(DEscherichia ) assessed as binding constant of proton H12 of isopentenylic moiety by saturation transfer difference NMR analysis
[5] = molecular target: T2, Farnesyl pyrophosphate synthase (Homo sapiens); test: Binding affinity to FPPS (unknown origin) expressed in Escherichia coli BL21(DEscherichia ) at protein/ligand 1:10 to 1:100 molar ratio by 2D COSY NMR analysis
[6] = molecular target: T1, Farnesyl pyrophosphate synthase; test: Binding affinity to FPPS (unknown origin) expressed in Escherichia coli BL21(DEscherichia ) assessed as binding constant of proton H11 of isopentenylic moiety by saturation transfer difference NMR analysis
[7] = molecular target: T2, Farnesyl pyrophosphate synthase (Homo sapiens); test: Binding affinity to FPPS (unknown origin) expressed in Escherichia coli BL21(DEscherichia ) at protein/ligand 1:10 to 1:100 molar ratio by WaterLOGSY NMR analysis
[8] = molecular target: T1, Farnesyl pyrophosphate synthase; test: Binding affinity to FPPS (unknown origin) expressed in Escherichia coli BL21(DEscherichia ) assessed as binding constant of proton H2/H8 of purine ring by saturation transfer difference NMR analysis

CC(C)=CCNc1ncnc2c1ncn2[C@@H]1O[C@H](CO)[C@@H](O)[C@H]1O [RIBOPRINE]
Kd [1]: 1210 µM
Activity [2]: Active
Activity [3]: Active
Kd [4]: 2210 µM
Activity [5]: Active
Kd [6]: 550 µM
Activity [7]: Active
Kd [8]: 2020 µM
